The text below walks through data of PMC11649115, “In vitro safety evaluation of dopamine D3R antagonist, R-VK4-116, as a potential medication for the treatment of opioid use disorder” (PLOS ONE, 2024).

Structures are written as SMILES. Read-outs that look alike come from different tables or passages of the source.

The test system of data set [1] is oxycodone self-administration. On the set-up: method as in PMID 30555159. To be noted: rodents, 5, 15 and 25 mg/kg ref 6; cited from earlier work.
In a further data set the target is T1, HPK1 (Homo sapiens, UniProt Q92918).
T1 construct: made in house; host or cells: E. coli BL21-derived host (T7 phage) or HEK-293
The data set is described as follows: KINOMEscan binding (% Ctrl, Kd).

The target in a further data set is D3R. On the set-up: method as in PMID 31526003. To be noted: read-out: binding affinity for D3R (Ki); cited from earlier work.
The target in the next data set is T2, OAT3 (Homo sapiens, UniProt Q8TCC7).
T2 construct: expressed in transfected cells; host or cells: MDCK-II cells
T2 sequence (Q8TCC7 1-542): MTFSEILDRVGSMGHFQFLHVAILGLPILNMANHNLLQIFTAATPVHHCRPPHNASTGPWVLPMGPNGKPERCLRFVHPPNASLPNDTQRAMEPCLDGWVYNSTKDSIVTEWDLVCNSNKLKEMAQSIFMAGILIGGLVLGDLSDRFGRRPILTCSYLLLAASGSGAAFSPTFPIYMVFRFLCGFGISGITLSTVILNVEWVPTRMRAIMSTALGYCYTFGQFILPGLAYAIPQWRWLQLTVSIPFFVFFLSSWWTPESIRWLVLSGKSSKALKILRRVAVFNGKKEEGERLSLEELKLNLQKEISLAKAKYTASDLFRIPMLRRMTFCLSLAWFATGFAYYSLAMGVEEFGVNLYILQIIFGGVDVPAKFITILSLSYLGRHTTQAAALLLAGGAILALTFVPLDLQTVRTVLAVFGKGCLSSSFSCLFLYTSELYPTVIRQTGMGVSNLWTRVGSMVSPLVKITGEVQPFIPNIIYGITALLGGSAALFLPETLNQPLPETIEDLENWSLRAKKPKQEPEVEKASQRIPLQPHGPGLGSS
The data set is described as follows: Transporter mediated assay (substrate/inhibitor), MDCK-II cells. Format: in vitro ADME.

The next data set concerns HepG2 cells. The data set is described as follows: Cytotoxicity MTT assay in HepG2. Format: cell-based. The note with it: 72-hr, 10 to 100 μM. Background: Tetrazolium dyes change colour on reduction, which living cells bring about.
In the next data set the target is T3, OATP1B1 (Homo sapiens, UniProt Q9Y6L6).
T3 construct: expressed in transfected cells; host or cells: MDCK-II cells
T3 sequence (Q9Y6L6 1-691): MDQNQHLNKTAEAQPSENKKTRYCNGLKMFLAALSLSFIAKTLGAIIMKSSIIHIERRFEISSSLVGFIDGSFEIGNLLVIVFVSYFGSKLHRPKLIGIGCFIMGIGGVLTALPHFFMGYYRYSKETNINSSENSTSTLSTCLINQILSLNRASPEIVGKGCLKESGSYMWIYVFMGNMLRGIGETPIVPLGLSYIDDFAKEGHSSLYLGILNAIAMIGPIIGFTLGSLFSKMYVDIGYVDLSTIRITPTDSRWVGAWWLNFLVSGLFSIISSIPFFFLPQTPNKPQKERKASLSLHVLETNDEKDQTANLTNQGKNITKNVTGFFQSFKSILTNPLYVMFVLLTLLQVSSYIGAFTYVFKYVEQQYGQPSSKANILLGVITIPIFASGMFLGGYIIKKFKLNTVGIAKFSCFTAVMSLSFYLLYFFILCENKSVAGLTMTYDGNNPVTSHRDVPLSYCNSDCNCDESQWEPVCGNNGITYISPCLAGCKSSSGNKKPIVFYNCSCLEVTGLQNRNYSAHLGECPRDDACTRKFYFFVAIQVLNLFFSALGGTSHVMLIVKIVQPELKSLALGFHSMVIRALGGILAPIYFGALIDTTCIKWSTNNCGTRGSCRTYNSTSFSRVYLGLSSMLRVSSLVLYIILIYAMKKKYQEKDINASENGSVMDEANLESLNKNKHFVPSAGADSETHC
The data set is described as follows: Transporter mediated assay (substrate/inhibitor), MDCK-II cells. Format: in vitro ADME.

A further data set has as its target T4, SRPK2 (Homo sapiens, UniProt P78362).
T4 construct: made in house; host or cells: E. coli BL21-derived host (T7 phage) or HEK-293
Put plainly: KINOMEscan binding (% Ctrl, Kd).

The next data set addresses T5, Kir2.1 (Homo sapiens, UniProt P63252).
T5 sequence (P63252 1-427): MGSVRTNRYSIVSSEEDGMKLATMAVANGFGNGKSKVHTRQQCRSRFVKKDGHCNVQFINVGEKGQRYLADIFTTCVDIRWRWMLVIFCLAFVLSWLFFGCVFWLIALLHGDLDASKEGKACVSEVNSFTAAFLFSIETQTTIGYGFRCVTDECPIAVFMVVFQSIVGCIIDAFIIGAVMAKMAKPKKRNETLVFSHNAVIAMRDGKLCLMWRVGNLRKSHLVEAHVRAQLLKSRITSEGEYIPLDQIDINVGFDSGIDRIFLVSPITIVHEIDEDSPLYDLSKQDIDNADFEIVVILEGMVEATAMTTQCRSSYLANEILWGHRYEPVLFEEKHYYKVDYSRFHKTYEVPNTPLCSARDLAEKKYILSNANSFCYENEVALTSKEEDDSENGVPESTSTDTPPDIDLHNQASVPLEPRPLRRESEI
Put plainly: CiPA IonChannelProfiler Cardiac Panel, QPatch. It is filed as cell-based. The note with it: Kir2.1, 100 μM. (In general: The patch-clamp technique gives a direct electrical read-out from membranes.)

[2] abbreviates: 11-point curve 0.001 to 10 μM, read-out: binding constant (Kd).

T1 sequence (Q92918 whole entry): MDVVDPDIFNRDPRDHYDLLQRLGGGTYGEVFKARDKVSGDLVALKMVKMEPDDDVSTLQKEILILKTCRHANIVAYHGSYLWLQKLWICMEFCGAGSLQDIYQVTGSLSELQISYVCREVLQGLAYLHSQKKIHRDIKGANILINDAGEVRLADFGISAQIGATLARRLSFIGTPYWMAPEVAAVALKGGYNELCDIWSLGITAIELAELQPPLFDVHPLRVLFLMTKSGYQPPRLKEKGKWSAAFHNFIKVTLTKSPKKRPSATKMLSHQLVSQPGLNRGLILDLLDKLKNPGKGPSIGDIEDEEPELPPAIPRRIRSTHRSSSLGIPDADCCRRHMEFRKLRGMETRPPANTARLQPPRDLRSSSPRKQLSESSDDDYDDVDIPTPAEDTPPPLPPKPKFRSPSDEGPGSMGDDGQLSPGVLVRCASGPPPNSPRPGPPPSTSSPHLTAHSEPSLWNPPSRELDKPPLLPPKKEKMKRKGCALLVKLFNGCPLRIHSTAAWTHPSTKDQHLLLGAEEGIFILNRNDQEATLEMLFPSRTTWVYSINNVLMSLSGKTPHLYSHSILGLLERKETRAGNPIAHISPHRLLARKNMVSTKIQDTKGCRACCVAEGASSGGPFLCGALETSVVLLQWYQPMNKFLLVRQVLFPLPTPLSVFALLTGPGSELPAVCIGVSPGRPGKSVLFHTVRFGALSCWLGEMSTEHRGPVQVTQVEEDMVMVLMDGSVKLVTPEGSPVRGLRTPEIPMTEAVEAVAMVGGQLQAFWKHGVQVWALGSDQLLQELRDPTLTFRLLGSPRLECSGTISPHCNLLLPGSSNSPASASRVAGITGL
T4 sequence (P78362 whole entry): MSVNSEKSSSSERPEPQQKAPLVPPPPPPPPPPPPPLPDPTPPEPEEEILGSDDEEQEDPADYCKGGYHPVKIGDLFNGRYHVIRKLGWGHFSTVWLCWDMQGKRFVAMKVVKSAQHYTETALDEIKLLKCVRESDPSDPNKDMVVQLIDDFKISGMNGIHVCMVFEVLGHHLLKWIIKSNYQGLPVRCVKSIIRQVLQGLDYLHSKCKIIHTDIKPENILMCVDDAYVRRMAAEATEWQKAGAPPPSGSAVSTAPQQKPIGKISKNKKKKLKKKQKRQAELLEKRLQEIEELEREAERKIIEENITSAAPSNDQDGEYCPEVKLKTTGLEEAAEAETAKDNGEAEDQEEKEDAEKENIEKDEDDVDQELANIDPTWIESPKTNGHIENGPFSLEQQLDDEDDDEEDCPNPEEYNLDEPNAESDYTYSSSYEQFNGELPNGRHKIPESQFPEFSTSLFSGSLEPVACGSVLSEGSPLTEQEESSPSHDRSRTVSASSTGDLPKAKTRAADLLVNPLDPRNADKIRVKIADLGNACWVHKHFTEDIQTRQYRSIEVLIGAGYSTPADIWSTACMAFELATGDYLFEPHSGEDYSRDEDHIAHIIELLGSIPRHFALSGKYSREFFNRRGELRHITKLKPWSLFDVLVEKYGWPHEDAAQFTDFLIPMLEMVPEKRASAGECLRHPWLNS
Experimental for HPK1: (§1) Briefly, E. coli host derived from the BL21 strain were grown to log-phase and infected with kinase-tagged T7 phage and incubated with shaking at 32°C until lysis. The lysates were centrifuged and filtered to remove cell debris. The remaining kinases were produced in HEK-293 cells and subsequently tagged with DNA for qPCR detection. Streptavidin-coated magnetic beads were treated with biotinylated small molecule ligands to generate affinity resins for kinase assays. The liganded beads were blocked with excess biotin and washed to remove unbound ligand and to reduce non-specific phage binding. […] Selectivity Score (S-score) was a quantitative measure of compound selectivity. […] The binding constants (Kds) were also determined with a standard dose-response curve using the Hill equation and Levenberg-Marquardt algorithm [24, 25].
Experimental for OAT3: (§2) The MDCK-II cells were treated to express the transporter of interest. The transport of each probe substrate was determined by radiometric detection (Fig 1 in S1 File). […] For the uptake assay, the net transporter-mediated uptake-rate (V) of the substrate by each SLC transporter was calculated as follows: Transporter–mediatedupdaterate(pmol/min/cm^2)=(Cellularaccumulationincellsexpressingthetransporter)−(Meancellularaccumulationincontrolcells)/Surfacearea×incubationtime
(§3) Fold of activity and percent inhibition were determined as follows: Foldofactivity=(Meanuptakerate)transporterexpressingcells/(Meanuptakerate)controlcells Percentinhibition=100−100×(Transport‐mediatedupdaterate)withinhibitor/(Transport‐mediatedupdaterate)vehiclecontrol
Experimental for OATP1B1: as §2, §3
Experimental for SRPK2: as §1

As to `CCc1cc(Cl)c(OC)c(N2CCN(CC(O)CCNC(=O)c3cc4ccccc4[nH]3)CC2)c1` (centres unmarked) [R-VK4-116, N-(4-(4-(3-chloro-5-ethyl-2-methoxyphenyl)piperazin-1-yl)-3-hydroxybutyl)-1H-indole-2-carboxamide], the oxycodone self-administration entry in data set [1] is listed as “decreased”. Besides, the Kd on HPK1 (setting [2]) and at SRPK2 (setting [2]) was more than 10 µM in each case. Moreover, the remaining binding at 1 µM was less than 35% at HPK1 (read-out: %Control), 29% on HPK1 (read-out: Gene (S-score with % control): HPK1), less than 35% at SRPK2 (read-out: %Control) and 21% on SRPK2 (read-out: Gene (S-score with % control): SRPK2). Besides, the Ki at D3R is 0.0074 µM. Besides, the “fold difference in mean uptake rate (substrate test)” value is recorded as less than 2 fold at OAT3 (OAT3, 1 μM, transporter cells vs control cells) and less than 2 fold on OATP1B1 (OATP1B1, 1 μM, transporter cells vs control cells). For the same compound, the “Inhibition (%)” value on OAT3 (OAT3, 0.1% BSA, 10 μM) is “no statistically significant inhibition”; at OATP1B1 (OATP1B1, 0.1% BSA, 10 μM), “no statistically significant inhibition”. Besides, the inhibition at 10 µM at OAT3 (human, polarized monolayer of MDCK-II cells expressing OAT3, OAT3, 0.1% BSA, 10 μM) is -5.73 ± 8.06%; against OATP1B1 (human, polarized monolayer of MDCK-II cells expressing OATP1B1, OATP1B1, 0.1% BSA, 10 μM), 5.5 ± 17.3%. Further, the “decrease in HepG2 cell viability compared with the solvent control (MTT)” value with HepG2 cells was 40–50%. The inhibition at 100 µM at Kir2.1 (read-out: inhibition, End) was determined as 97.2%; on Kir2.1 (read-out: inhibition, Peak) it was 52.6%.

In general, Kd refers to the free concentration of one partner at which half of the binding sites on the other are occupied at equilibrium, for simple one-to-one binding. A word on the Ki: it is the equilibrium dissociation constant of an inhibitor or competing ligand from its target. Usually inhibition stands for the drop in the measured response relative to a control, in per cent.
